The values that follow come from patent US4144236A (priority 1973, dated 1979).

A word on the LD50: it is the dose expected to kill half of the subjects tested. Read a low LD50 as a more toxic substance.

Read-outs that look alike come from different tables or passages of the source.

Data set [1] deals with citric acid aerosol induced cough. The data set is described as follows: animal or person. Type of data set: in vivo, Wistar rats. The following applies: for ED50: Rattus norvegicus, read-out: AtD50. Here is the method:
The anti-tussive activity in rats was tested by the method of Gosswald. Wistar rats weighing 130 to 180 g were placed in a plexi box (23 × 22 × 11 cm) and cough responses were elicited by citric acid aerosol (10%). The latency period of cough was measured before and after drug administration. The control latency was determined 18 hours before the drug administration. Animals with less than 60 second control latency were used for the experiments. […] Each animal was exposed to citric acid aerosol for a period of 3 minutes 30 seconds and 60 minutes after drug administration. […] Ten animals were used at each dose level. The anti-tussive dose (AtD50) was calculated according to Litchfield and Wilcoxon. The drugs were administered by subcutaneous and oral routes.

Data set [2] deals with electrical stimulation induced coughing. Put plainly: Anti-tussive activity: electrical stimulation (superior laryngeal nerve) induced coughing in cats (method of Domenjoz). The settings on record: for ED100 / ED50: Felis catus; for ED100: read-out: AtD100; for ED50: read-out: AtD50. The format is in vivo. Here is the method: Anti-tussive activity in cats was determined by the method of Domenjoz. Cats weighing 2.5 to 3.5 kg were anesthetized with an i.p. dose of 30 mg per kg of sodium pentobarbitone. […] The cough responses were measured by means of a Marey-tambour connected to a face mask and recorded on a smoked paper. Drugs were given intravenously in increasing doses. The effect of each dose was measured on at least five cats. The effects of the drug was calculated from the changes of amplitude of cough curves. If no coughing was produced by two successive stimulations, the dose was taken as the effective anti-tussive dose (AtD100). The anti-tussive dose (AtD50) which reduces the control response by 50% was calculated by the method of Litchfield and Wilcoxon.

Data set [3] in a line: Blood pressure changes in anesthetized cats. The following applies: for Change in blood pressure: drop from control. Here is the method:
Blood pressure changes were studied in cats anesthetized with pentabarbitone sodium (35 mg/kg, i.p.). The substances were injected into the right femoral vein, responses to drugs were measured by means of a mercury manometer and recorded on a smoke cylinder.

A short description of data set [4]: Analgesic activity, writhing test (Van der Wende and Margolin), s.c., mice. The following applies: Mus musculus, sc, read-out: ED50 (Writhing test). Background: An intraperitoneal irritant provokes the stretching counted in writhing tests.
The nature of another data set: in vivo. The settings on record: rat, sc.
Data set [5] can be described thus: Physical dependency disposition test (spring-test; jumping after naloxone) for 2 days on mice. The following applies: Haloxone 100 mg./kg., 2nd day; for Average jump per mouse: mice.
Protocol: ^+ The total dosage was added intraperitoneally in seven, gradually
increasing increments, within 26 hours.
The text on data set [6]:
^++ D'Amour,D.E. and Smith,D.L.: J.Pharm.Expt.Ther. 72. 74 (1941)
The source holds these as a separate data set.

Data set [7] is described as follows: Analgesic ED50, hot plate test, i.p. (footnote of Table 4). The settings on record: for ED50: ip, read-out: ED50 (analgesic). Type of data set: in vivo. As for the experimental part: 0.025 mg./kg. i.p., Compound "A": 0.0125 mg./kg. i.p. (measured by the ho
A general note: Hot-plate and tail-flick tests time the reaction to a heat stimulus.

The mark [8] stands for this setting: sc, rats, s.c., limits in brackets.
Setting [9] is: iv, cats, i.v., no coughing by two successive stimulations.
Where [10] appears, read: anesthetized cats, 0.5 mg/kg i.v.
Setting [11] is: anesthetized cats, 0.5 mg/kg i.v., means ± S.E.
Setting [12] is: cats, i.v., no coughing by two successive stimulations.
The mark [13] stands for this setting: rats, s.c., 95% confidence limits given.
[14] abbreviates: total dosage 1 i.p. in 26 hours.
[15] abbreviates: total dosage 10 i.p. in 26 hours.
The mark [16] stands for this setting: total dosage 40 i.p. in 26 hours.
Setting [17] is: total dosage 70 i.p. in 26 hours.
[18] abbreviates: rats, s.c., 95% confidence limits on the next line.
[19] abbreviates: total dosage 100 i.p. in 26 hours.
Where [20] appears, read: total dosage 200 i.p. in 26 hours.
Where [21] appears, read: total dosage 400 i.p. in 26 hours.
The mark [22] stands for this setting: total dosage 1000 i.p. in 26 hours.

For `COc1ccc2c3c1O[C@H]1C(N=[N+]=[N-])CC[C@@]4(O)[C@@H](C2)N(C)CC[C@]314` (some centres unmarked) [14-OH-azidocodeine], the ED50 stood at 0.82 mg/kg in data set [1] (setting [8]) and 0.6 mg/kg in data set [2] (iv, cats, i.v.). Further, the “Ratio codeine/drug (AtD50)” value is reported as 23.17 in [1] (rats, s.c.) and 2.42 in [2] (cats, i.v.). Moreover, the ED100 in data set [2] (setting [9]) was 1.47 ± 0.07 mg/kg. For the same molecule, in data set [2] (cats, i.v.), the “Ratio codeine/drug (AtD100)” value is given as 2.91. The “Change in blood pressure” value in data set [3] (setting [10]) is on record as 3 ± 1.3 mm Hg. In [3] (setting [11]), the “Blood pressure after drug” value came out at 126 ± 6.6 mm Hg. The “blood pressure effect in words” value in data set [3] (anesthetized cats, i.v.) was “The substances studied, except azidocodeine and 14-hydroxy-azidocodeine, lowered blood pressure”.

On to `COc1ccc2c3c1O[C@H]1[C@H](N=[N+]=[N-])CC[C@H]4[C@@H](C2)N(C)CC[C@@]341` [Azidocodeine], for which the “Ratio codeine/drug (AtD50)” value in [1] (rats, s.c.) worked out at 12.10. The AtD50 in data set [1] (rats, s.c., limits in brackets) is 1.57 (1.20-2.41) mg/kg s.c. Further, in [2] (cats, i.v.), the AtD50 is given as 0.40 mg/kg i.v, the “Ratio codeine/drug (AtD50)” value was 3.63 and the “Ratio codeine/drug (AtD100)” value was determined as 4.69. Further, the AtD100 in data set [2] (setting [12]) came to 1.08 ± 0.04 mg/kg i.v. Further, in data set [3] (setting [10]), the “Change in blood pressure” value was 6 ± 3.8 mm Hg. Moreover, the “Blood pressure after drug” value in [3] (setting [11]) is recorded as 122 ± 5.2 mm Hg. In addition, the “blood pressure effect in words” value in data set [3] (anesthetized cats, i.v.) was “The substances studied, except azidocodeine and 14-hydroxy-azidocodeine, lowered blood pressure”.

With `CN1CC[C@]23c4c5ccc(O)c4O[C@H]2[C@H](N=[N+]=[N-])CC[C@H]3[C@H]1C5` [Azidomorphine, 6-deoxy-6-azido-7,8-dihydroisomorphine], the “ED50 (hot plate)” value under setting [13] is on record as 0.016 mg./kg.s.c. Also, the results for the ED50 in [4], in [1] (setting [8]) and in [7] were 0.013 mg/kg, 0.034 mg/kg and 0.025 mg/kg, respectively. Further, the “Ratio codeine/drug (AtD50)” value in [1] (rats, s.c.) was 558.82. Also, the “Change in blood pressure” value in data set [3] (anesthetized cats, 0.0035 mg/kg i.v.) is on record as 40 ± 3.4 mm Hg. For the same molecule, in data set [3] (anesthetized cats, 0.0035 mg/kg i.v., means ± S.E.), the “Blood pressure after drug” value is 103 ± 9.3 mm Hg. Also, the “tolerance to the vasodepressor responses” value in data set [3] (in vivo) is “cross tolerance between morphine, codeine, azidomorphine and 14-hydroxyazidomorphine* was observed”. Also, the LD50 in “in vivo” was 13 mg/kg. The “Average jump per mouse” value came to 0.0 in [5] (setting [14]), 1.4 in data set [5] (setting [15]), 10.1 in data set [5] (setting [16]) and 7.4 in data set [5] (setting [17]). Further, the Jumping mice/examined mice in data set [5] (setting [14]) was 0/25; in data set [5] (setting [15]) it was 10/25; in [5] (setting [16]) it was 19/25; in data set [5] (setting [17]), 12/25. Besides, in data set [6] (setting [18]), the “ED50 (tail flick test)” value is given as 0.012 s.c. mg./kg.

Regarding `COc1ccc2c3c1O[C@H]1[C@@H](O)C=C[C@H]4[C@@H](C2)N(C)CC[C@@]341` [Codeine], the ED50 in [1] (setting [8]) amounted to 19 mg/kg; in data set [1] (rats, oral, limits in brackets), 100 mg/kg; in data set [2] (iv, cats, i.v.), 1.45 mg/kg. In addition, in data set [2] (setting [9]), the ED100 was determined as 5.07 ± 1.87 mg/kg. The “Change in blood pressure” value in data set [3] (anesthetized cats, 1.5 mg/kg i.v.) worked out at 26 ± 4.9 mm Hg. Moreover, the “Blood pressure after drug” value in data set [3] (anesthetized cats, 1.5 mg/kg i.v., means ± S.E.) amounted to 98 ± 5.3 mm Hg. The “tolerance to the vasodepressor responses” value in data set [3] (anesthetized cats, successive administrations) was “cross tolerance between morphine, codeine, azidomorphine and 14-hydroxyazidomorphine* was observed”.

As to `CN1CC[C@]23c4c5ccc(O)c4O[C@H]2[C@H](N=[N+]=[N-])CC[C@@]3(O)[C@H]1C5` [Compound "A", 6-deoxy-6-azido-14-hydroxy-7,8-dihydroisomorphine], for the setting “rat, in vivo”, the “therapeutical indices in words” value is listed as “more favorable therapeutical indices than any of the known substances with similar biological activities”. In addition, the “ED50 (hot plate)” value under setting [13] is recorded as 0.012 mg./kg.s.c. In addition, the ED50 in data set [4] stood at 0.051 mg/kg; in [1] (po) it was 10 mg/kg; in data set [1] (setting [8]), 0.021 mg/kg; in data set [2] (iv), 0.012 mg/kg; in data set [7] (hot plate test) it was 0.0125 mg/kg. The “anti-tussive activity in words” value in data set [1] (rat, in vivo) is listed as “superior anti-tussive to those anti-tussives currently in use”. The “Ratio codeine/drug (AtD50)” value in data set [1] (rat, in vivo, po) came out at 10.00; in data set [1] (rats, s.c.), 904.76; in [2] (in vivo, iv), 120.83. Further, in data set [1] (rat, in vivo, sc), the “potency as an anti-tussive relative to codeine” value worked out at 904 times. Also, the ED100 in data set [2] (iv) was 0.02 ± 0.002 mg/kg. The “Ratio codeine/drug (AtD100)” value in data set [2] (in vivo, iv) amounted to 253.50. In addition, the “tolerance to the vasodepressor responses” value in data set [3] (in vivo) was “cross tolerance between morphine, codeine, azidomorphine and 14-hydroxyazidomorphine* was observed”. In addition, the “blood pressure effect in words” value in data set [3] (in vivo, iv) is on record as “greatest drop in blood pressure of all compounds tested”. Besides, in data set [3] (in vivo, iv, 0.035 mg/kg), the “Blood pressure after drug” value was found to be 97 ± 4.5 mm Hg. In “in vivo”, this molecule showed an LD50 of 200 mg/kg. Moreover, the entries for the “Average jump per mouse” value in data set [5] (setting [15]) and in data set [5] (setting [17]) were 0.9 and 3.8, respectively. The Jumping mice/examined mice in [5] (setting [15]) was 3/25; in data set [5] (setting [17]), 14.25. The “ED50 (tail flick test)” value in data set [6] (setting [18]) is given as 0.029 s.c. mg./kg.

As to `CCC(=O)C(CC(C)N(C)C)(c1ccccc1)c1ccccc1` (centres unmarked) [Methadone], the “ED50 (hot plate)” value (rat, in vivo, sc) worked out at 1.9 mg./kg.s.c. In addition, in [4], the ED50 is 0.71 mg/kg. In addition, the LD50 in “in vivo” came out at 28 mg/kg. Moreover, the “ED50 (tail flick test)” value in data set [6] (rat, in vivo, sc) is listed as 1.6 s.c. mg./kg.

Regarding `CN1CC[C@]23c4c5ccc(O)c4O[C@H]2[C@@H](O)C=C[C@H]3[C@H]1C5` [Morphine], under “rat, in vivo, sc”, the “ED50 (hot plate)” value worked out at 4.7 mg./kg.s.c. For the same molecule, the ED50 amounted to 0.69 mg/kg in data set [4] and 0.61 mg/kg in data set [2] (iv). The AtD100 in data set [2] (setting [12]) is reported as 1.28 ± 0.32 mg/kg i.v. Besides, the “Change in blood pressure” value in [3] (anesthetized cats, 1.03 mg/kg i.v.) is 39 ± 2.1 mm Hg. Further, the “Blood pressure after drug” value in data set [3] (anesthetized cats, 1.03 mg/kg i.v., means ± S.E.) amounted to 92 ± 1.0 mm Hg. Further, in [3] (anesthetized cats, i.v.), the “blood pressure effect in words” value was “only morphine produced a biphasic hypotensive effect”. For the same molecule, the “Average jump per mouse” value in [5] (setting [19]) turned out to be 9.7; in data set [5] (setting [20]) it was 46.4; in data set [5] (setting [21]), 42.7; in data set [5] (setting [22]) it was 48.7. The Jumping mice/examined mice in data set [5] (setting [19]) was 20/25; in [5] (setting [20]), 25/25; in [5] (setting [21]), 25/25; in [5] (setting [22]), 25/25. Further, the “ED50 (tail flick test)” value in data set [6] (rat, in vivo, sc) stood at 1.8 s.c. mg./kg. Further, the “ED50 (analgesic)” value in data set [7] (i.p., hot plate test) was found to be 5 mg./kg. i.p.

On to `CC(C)=CCN1CCC2(C)c3cc(O)ccc3CC1C2C` (centres unmarked) [Pentazocine], for which the “ED50 (hot plate)” value under setting [13] was determined as 9.1 mg./kg.s.c. The ED50 in data set [4] was 8.1 mg/kg. Besides, the 50% lethal dose (LD50) in “in vivo” came out at 280 mg/kg. For the same molecule, the “ED50 (tail flick test)” value in data set [6] (setting [18]) was 12 s.c. mg./kg.

For `CCOC(=O)C1(c2ccccc2)CCN(C)CC1` [Petidine], the “ED50 (hot plate)” value under setting [13] was 4.9 mg./kg.s.c. The ED50 in data set [4] amounted to 3.3 mg/kg. In addition, the LD50 in the data set “in vivo” was 280 mg/kg. In addition, the “ED50 (tail flick test)” value in data set [6] (setting [18]) came to 4.3 s.c. mg./kg.
